# Experimental data: the supplement of paper PMC4862054
# Columns and labels:
# Assay in all cases: normalised response (% of control), CellTiter-Glo; higher = more viable cells (100 = DMSO, 0 = benzethonium chloride kill control)
# Details in all cases: incubation time: 72 h
# MDA-MB-468 = system: MDA-MB-468
# In short: (§1)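 Each entry is the normalised signal at a single concentration within a series. The series comprised 5 concentrations in 10-fold steps over a compound-specific 10,000-fold range, placed in 384-well plates into which breast cancer cell lines were seeded as 20 µl suspension and incubated 72 h. CellTox Green (485/520 nm) fluorescence and then CellTiter-Glo luminescence were read, with signals normalised per plate to 0.1 % DMSO (100) and a positive kill control (0).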
# HDQ-P1 = system: HDQ-P1
# In short: as §1
# Hs578T = system: Hs578T
# In short: as §1
# MCF-10A = system: MCF-10A
# In short: as §1
# DU-4475 = system: DU-4475
# In short: as §1
# CAL-120 = system: CAL-120
# In short: as §1
# MDA-MB-231 = system: MDA-MB-231
# In short: as §1
# MFM-223 = system: MFM-223
# In short: as §1
# CAL-85-1 = system: CAL-85-1
# In short: as §1
# CAL-51 = system: CAL-51
# In short: as §1
# MDA-MB-436 = system: MDA-MB-436
# In short: as §1
# CAL-148 = system: CAL-148
# In short: as §1
# MDA-MB-453 = system: MDA-MB-453
# In short: as §1
# BT-549 = system: BT-549
# In short: as §1
# HCC1143 = system: HCC1143
# In short: as §1
# BT-474 = system: BT-474
# In short: as §1
# HCC1937 = system: HCC1937
# In short: as §1
# HCC1599 = system: HCC1599
# In short: as §1
SMILES,normalised response (MDA-MB-468) [%],normalised response (HDQ-P1) [%],normalised response (Hs578T) [%],normalised response (MCF-10A) [%],normalised response (DU-4475) [%],normalised response (CAL-120) [%],normalised response (MDA-MB-231) [%],normalised response (MFM-223) [%],normalised response (CAL-85-1) [%],normalised response (CAL-51) [%],normalised response (MDA-MB-436) [%],normalised response (CAL-148) [%],normalised response (MDA-MB-453) [%],normalised response (BT-549) [%],normalised response (HCC1143) [%],normalised response (BT-474) [%],normalised response (HCC1937) [%],normalised response (HCC1599) [%]
CC(=O)[C@]1(O)Cc2c(O)c3c(c(O)c2[C@@H](O[C@H]2C[C@H](N)[C@H](O)[C@H](C)O2)C1)C(=O)c1ccccc1C3=O [Idarubicin] (1 nM),97.7,99.7,99.5,105,101,104,109,109,103,91.5,113,116,101,90.5,107,111,99.9,91.1
O=C(O)CNC(=O)c1c(O)c2ccccc2n(Cc2ccccc2)c1=O [IOX-2] (50 nM),92.9,95.7,102,103,95.1,98.1,99.5,104,97.1,88,96.9,98.7,86.3,93.9,94.5,96.9,93.6,94.1
C/C(=C\c1csc(C)n1)[C@@H]1C[C@@H]2O[C@]2(C)CCC[C@H](C)[C@H](O)[C@@H](C)C(=O)C(C)(C)[C@@H](O)CC(=O)N1 [Ixabepilone] (1 nM),104,98.5,105,103,102,100,101,106,99.8,129,99.3,102,107,95.5,98.1,106,97.6,85.5
CC(C)(C)c1nc(-c2cccc(NS(=O)(=O)c3c(F)cccc3F)c2F)c(-c2ccnc(N)n2)s1 [Dabrafenib] (2.5 nM),105,105,103,112,104,98.5,102,101,99,109,101,112,111,99.1,105,101,98.4,99.8
CC1(COc2ccc3c(c2)ncn3-c2ccc3cccc(N4CCC(N)CC4)c3n2)COC1 [Crenolanib] (10 nM),102,103,98.7,106,103,97.8,106,108,99.2,90.6,94.8,110,94.6,95.6,105,105,104,96.2
CN(C)C(=N)NC(=N)N [Metformin] (100 nM),88,99.4,94,77.5,93,108,102,87.2,95.7,117,95.4,93.7,76.8,99,101,91.7,99.6,97.6
CC[C@H](CO)Nc1nc(NCc2ccccc2)c2ncn(C(C)C)c2n1 [Seliciclib] (10 nM),98.9,94.5,105,107,103,91.9,104,101,108,113,110,110,104,99.9,98.7,102,104,103
CCNC(=O)CCC/C=C\C[C@@H]1[C@@H](/C=C/[C@@H](O)CCc2ccccc2)[C@H](O)C[C@@H]1O [Bimatoprost] (5.5 nM),96.5,94.5,98.4,96.4,99.5,93.1,101,96.1,96.1,106,102,92.8,96.8,91.7,99.4,96.6,96,96.9
CCn1c(C(=O)N(C2CC2)C2CC2)cc2c3c(ncn3C)c(Nc3cc(C)n(C)n3)nc21 (10 nM),106,95.6,105,99.8,96.9,97.3,100,102,101,85.3,103,107,93.3,95.2,104,93.5,99.5,82.5
O=C(CCCCCCC(=O)Nc1ccccc1)NO [Vorinostat] (10 nM),106,94.6,98.1,102,105,87.9,98.2,101,105,117,105,98.6,90.3,106,98.4,97.6,101,102
COc1ccc(S(=O)(=O)Nc2cccnc2Nc2ccc(O)cc2)cc1 [ABT-751] (10 nM),98.2,98.5,93.8,101,102,101,100,96.7,97.5,117,108,93.6,105,95.8,106,101,97.5,124
